Measured values: patent US9102613B2, “Method for producing sorbic anhydride and also use thereof as a preservative in foods” (LANXESS DEUTSCHLAND GMBH, priority 2010, dated 2015)

Experiment: preservative action in foods (e.g. fruit drinks)

SMILES | preservation action relative to sorbic acid or sorbate (compared with sorbic acid or sorbate, preservative for foods) | preservative action relative to potassium sorbate (compared with e.g. potassium sorbate, preservation of foods)
C/C=C/C=C/C(=O)OC(=O)/C=C/C=C/C [all-E-sorbic anhydride] | approximately five times higher | –
C/C=C/C=C/C(=O)OC(=O)/C=C/C=C/C [sorbic anhydride] | – | about 5 times
